Reference: US10065990B2, “Cyclic peptide compound, and preparation method, pharmaceutical composition and use thereof” (HANGZHOU GUANYU BIO-MEDICAL CO., LTD, priority 2013, dated 2018)
Where two headings read alike, the source gives them in different places.

How the values were obtained:
HDAC7 = biological target: T1, HDAC7 (Homo sapiens, UniProt Q8WUI4); assay: HDAC biochemical activity measurement (fluorescent substrate deacetylation);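 on all read-outs here: fluorogenic deacetylation assay using acetyl-lysine substrate at 20 µM, enzyme and compound incubated 30 min at 37 °C, then developer added, fluorescence read at 360/460 nm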; conditions: for IC50 HDAC7: 37° C. 30 minutes
T1 sequence (Q8WUI4 1-952): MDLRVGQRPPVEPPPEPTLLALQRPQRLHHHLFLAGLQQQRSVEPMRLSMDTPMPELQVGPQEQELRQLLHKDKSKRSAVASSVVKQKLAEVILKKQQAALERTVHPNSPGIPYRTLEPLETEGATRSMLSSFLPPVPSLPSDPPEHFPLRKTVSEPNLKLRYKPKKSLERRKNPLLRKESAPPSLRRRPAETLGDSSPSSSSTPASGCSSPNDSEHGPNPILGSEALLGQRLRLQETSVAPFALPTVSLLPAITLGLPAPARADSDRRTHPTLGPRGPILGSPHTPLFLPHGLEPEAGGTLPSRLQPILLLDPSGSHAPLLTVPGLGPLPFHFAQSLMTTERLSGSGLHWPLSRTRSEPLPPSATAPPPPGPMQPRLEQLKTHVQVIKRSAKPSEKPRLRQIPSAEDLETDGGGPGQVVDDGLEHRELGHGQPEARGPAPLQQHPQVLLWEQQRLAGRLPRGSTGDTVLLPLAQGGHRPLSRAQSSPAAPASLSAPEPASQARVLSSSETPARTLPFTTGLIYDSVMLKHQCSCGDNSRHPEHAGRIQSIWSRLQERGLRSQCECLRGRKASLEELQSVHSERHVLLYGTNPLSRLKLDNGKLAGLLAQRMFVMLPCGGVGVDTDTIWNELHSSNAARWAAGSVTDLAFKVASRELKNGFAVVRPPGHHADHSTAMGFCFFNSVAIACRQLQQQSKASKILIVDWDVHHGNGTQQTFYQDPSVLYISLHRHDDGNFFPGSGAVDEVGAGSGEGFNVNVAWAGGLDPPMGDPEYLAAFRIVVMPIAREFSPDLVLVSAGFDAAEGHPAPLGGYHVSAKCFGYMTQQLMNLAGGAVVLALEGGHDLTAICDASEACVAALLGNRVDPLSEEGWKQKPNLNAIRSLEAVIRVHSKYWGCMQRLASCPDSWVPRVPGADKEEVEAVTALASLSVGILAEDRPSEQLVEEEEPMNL

[1] = test system: KBM5-T315I (human chronic myelogenous leukemia); assay: MTT cancer cell growth inhibition; type: cell-based; conditions: Homo sapiens, 72 h, MTT, 72 hours incubation, KBM5-T315I cells; read-out: GI50 KBM5-T315I
Method in brief: (§1)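 Three-day compound exposure (final 10^−5–10^−10 M, three replicate wells) of cells seeded at 1500 per well precedes a 4 h MTT incubation at 37° C. Viability is taken from 570 nm absorbance after DMSO solubilisation, and GI50 calculated from it.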

[2] = test system: PANC-1 (Pac-1, human pancreatic cancer cells); assay: MTT cancer cell growth inhibition; type: cell-based; conditions: Homo sapiens, PANC-1, 72 h, MTT, 72 hours incubation, read-out: GI50 PAN
Method in brief: as §1

[3] = test system: MOLT-4 (human acute lymphoblastic leukemia cells); assay: MTT cancer cell growth inhibition; type: cell-based; conditions: Homo sapiens, MOLT-4, 72 h, MTT, 72 hours incubation, read-out: GI50 Mol
Method in brief: as §1

[4] = test system: HT1080 (human fibrosarcoma cells); assay: MTT cancer cell growth inhibition; type: cell-based; conditions: Homo sapiens, HT-1080, 72 h, MTT, 72 hours incubation, read-out: GI50 HT1
Method in brief: as §1

[5] = test system: SGC-7901 (human gastric cancer cells); assay: MTT cancer cell growth inhibition; type: cell-based; conditions: Homo sapiens, SGC-7901, 72 h, MTT, 72 hours incubation, SGC-7901 cells; read-out: GI50 SGC-7901
Method in brief: as §1

[6] = test system: BGC-823 (human gastric cancer cells); assay: MTT cancer cell growth inhibition; type: cell-based; conditions: Homo sapiens, BGC-823, 72 h, MTT, 72 hours incubation, read-out: GI50 BG
Method in brief: as §1

[7] = test system: Hela (human cervical cancer cells); assay: MTT cancer cell growth inhibition; type: cell-based; conditions: Homo sapiens, HeLa, 72 h, MTT, 72 hours incubation, read-out: GI50 Hela
Method in brief: as §1

[8] = test system: Bel-7402 (human hepatoma cells); assay: MTT cancer cell growth inhibition; type: cell-based; conditions: Homo sapiens, Bel-7402, 72 h, MTT, 72 hours incubation, Bel-7402 cells; read-out: GI50 Bel-7402
Method in brief: as §1

[9] = test system: MCF-7 (human breast cancer cells); assay: MTT cancer cell growth inhibition; type: cell-based; conditions: Homo sapiens, MCF7, 72 h, 72 hours incubation, read-out: GI50 MCF
Method in brief: as §1

[10] = test system: HCC827 (human non-small cell lung cancer cells); assay: MTT cancer cell growth inhibition; type: cell-based; conditions: Homo sapiens, HCC827, 72 h, MTT, 72 hours incubation, HCC827 cells; read-out: GI50 HCC827
Method in brief: as §1

[11] = test system: H1975 (non-small cell lung adenocarcinoma); assay: MTT cancer cell growth inhibition; type: cell-based; conditions: Homo sapiens, NCI-H1975, 72 h, MTT, 72 hours incubation, H1975 cells; read-out: GI50 H1975
Method in brief: as §1

[12] = test system: A549 (human lung cancer cells); assay: MTT cancer cell growth inhibition; type: cell-based; conditions: Homo sapiens, A549, 72 h, MTT, 72 hours incubation, read-out: GI50 A54
Method in brief: as §1

[13] = test system: K562 (human leukemia cells); assay: MTT cancer cell growth inhibition; type: cell-based; conditions: Homo sapiens, K562, 72 h, MTT, 72 hours incubation, K562 cells; read-out: GI50 K562
Method in brief: as §1

[14] = test system: DU145 (human prostate cancer cells); assay: MTT cancer cell growth inhibition; type: cell-based; conditions: Homo sapiens, DU-145, 72 h, MTT, 72 hours incubation, read-out: GI50 Du1
Method in brief: as §1

[15] = test system: lncap (prostate cancer cells); assay: MTT cancer cell growth inhibition; type: cell-based; conditions: Homo sapiens, LNCaP, 72 h, MTT, 72 hours incubation, read-out: GI50 lnca
Method in brief: as §1

[16] = test system: Huh-7 (human hepatoma cells); assay: MTT cancer cell growth inhibition; type: cell-based; conditions: Homo sapiens, Huh-7, 72 h, MTT, 72 hours incubation, Huh-7 cells; read-out: GI50 Huh-7
Method in brief: as §1

[17] = test system: MDA-MB-231 (breast cancer cells); assay: MTT cancer cell growth inhibition; type: cell-based; conditions: Homo sapiens, MDA-MB-231, 72 h, read-out: GI50 MDA-MB-231, MTT, 72 hours incubation, MDA-MB-231 cells
Method in brief: as §1

[18] = test system: U937 (human leukemia cells); assay: MTT cancer cell growth inhibition; type: cell-based; conditions: Homo sapiens, U-937, 72 h, MTT, 72 hours incubation, read-out: GI50 U93
Method in brief: as §1

[19] = test system: N-87 (human gastric cancer cells); assay: MTT cancer cell growth inhibition; type: cell-based; conditions: Homo sapiens, 72 h, MTT, 72 hours incubation, N-87 cells; read-out: GI50 N-87
Method in brief: as §1

[20] = test system: KBM-5 (human chronic myelogenous leukemia); assay: MTT cancer cell growth inhibition; type: cell-based; conditions: Homo sapiens, KBM5, 72 h, MTT, 72 hours incubation, KBM-5 cells; read-out: GI50 KBM-5
Method in brief: as §1

Row | Compound | IC50 HDAC7 (HDAC7) | GI50 [1] | GI50 ([2]; PANC-1 cells) | GI50 ([3]; MOLT-4 cells) | GI50 ([4]; HT1080 cells) | GI50 [5] | GI50 ([6]; BGC-823 cells) | GI50 ([7]; Hela cells) | GI50 [8] | GI50 ([9]; MCF-7 cells) | GI50 [10] | GI50 [11] | GI50 ([12]; A549 cells) | GI50 [13] | GI50 ([14]; DU145 cells) | GI50 ([15]; lncap cells) | GI50 [16] | GI50 [17] | GI50 [19] | GI50 [20] | further results
1 | C/C=C1\NC(=O)c2cc(SC)cc(n2)CNC(=O)C[C@@H](/C=C/CCSC(C)=O)OC(=O)[C@H](C(C)C)NC1=O [Compound 166] | no activity | 53 nM | 20 nM | 30 nM | 80 nM | 42 nM | 70 nM | 50 nM | 68 nM | 60 nM | 31 nM | 26 nM | 10 nM | 46 nM | 60 nM | 70 nM | 56 nM | 17 nM | 73 nM | 50 nM | GI50 ([18]; U937 cells): 30 nM
2 | C/C=C1\NC(=O)c2cc(F)cc(n2)CNC(=O)C[C@@H](/C=C/CCS)OC(=O)[C@H](C(C)C)NC1=O [Compound 107] | no activity | 41 nM |  |  |  | 27 nM |  |  | 53 nM |  | 13 nM | 57 nM |  | 38 nM |  |  | 24 nM | 27 nM | 35 nM | 72 nM | GI50 [2]: 80 nM; GI50 [3]: 30 nM; GI50 [4]: 80 nM; GI50 [6]: 30 nM; GI50 [7]: 60 nM; GI50 [9]: 30 nM; GI50 [12]: 40 nM; GI50 [14]: 30 nM; GI50 [15]: 30 nM; GI50 [18]: 30 nM
3 | C/C=C1\NC(=O)c2ccc(SC)c(n2)CNC(=O)C[C@@H](/C=C/CCSC(=O)CCC)OC(=O)[C@H](C(C)C)NC1=O [Compound 161] | no activity | 12 nM | 10 nM | 30 nM | 50 nM | 91 nM | 20 nM | 10 nM | 47 nM | 70 nM | 65 nM | 57 nM | 80 nM | 31 nM | 20 nM | 70 nM | 79 nM | 46 nM | 37 nM | 13 nM | GI50 ([18]; U937 cells): 60 nM
4 | C/C=C1\NC(=O)c2nc(ccc2F)CNC(=O)C[C@@H](/C=C/CCS)OC(=O)[C@H](Cc2ccc(O)cc2)NC1=O [Compound 128] | no activity | 53 nM |  |  |  | 23 nM |  |  | 53 nM |  | 39 nM | 23 nM |  | 73 nM |  |  | 49 nM | 55 nM | 35 nM | 41 nM | GI50 [2]: 130 nM; GI50 [3]: 20 nM; GI50 [4]: 70 nM; GI50 [6]: 70 nM; GI50 [7]: 40 nM; GI50 [9]: 50 nM; GI50 [12]: 30 nM; GI50 [14]: 50 nM; GI50 [15]: 100 nM; GI50 [18]: 50 nM
5 | C/C=C1\NC(=O)c2ccc(SC)c(n2)CNC(=O)C[C@@H](/C=C/CCSC(=O)CC)OC(=O)[C@H](C(C)C)NC1=O [Compound 164] | no activity | 47 nM | 80 nM | 50 nM | 20 nM | 28 nM | 340 nM | 20 nM | 38 nM | 30 nM | 28 nM | 81 nM | 60 nM | 62 nM | 50 nM | 30 nM | 95 nM | 96 nM | 41 nM | 73 nM | GI50 ([18]; U937 cells): 60 nM

Further lines, with some results ahead:

Row | IC50 HDAC7 (HDAC7) | GI50 [1] | GI50 ([2]; PANC-1 cells) | GI50 ([3]; MOLT-4 cells) | GI50 ([4]; HT1080 cells) | GI50 [5] | GI50 ([6]; BGC-823 cells) | GI50 ([7]; Hela cells) | GI50 [8] | GI50 ([9]; MCF-7 cells) | GI50 [10] | GI50 [11] | GI50 ([12]; A549 cells) | GI50 [13] | GI50 ([14]; DU145 cells) | GI50 ([15]; lncap cells) | GI50 [16] | GI50 [17] | GI50 [19] | GI50 [20] | Compound | further results
6 | no activity | 63 nM |  |  |  | 77 nM |  |  | 57 nM |  | 57 nM | 42 nM |  | 27 nM |  |  | 19 nM | 19 nM | 52 nM | 92 nM | C/C=C1\NC(=O)c2cc(F)cc(n2)CNC(=O)C[C@@H](/C=C/CCSC(=O)CCCCCCC)OC(=O)[C@H](C(C)C)NC1=O [Example 31] | GI50 [2]: 50 nM; GI50 [3]: 10 nM; GI50 [4]: 50 nM; GI50 [6]: 50 nM; GI50 [7]: 90 nM; GI50 [9]: 60 nM; GI50 [12]: 70 nM; GI50 [14]: 20 nM; GI50 [15]: 10 nM; GI50 [18]: 40 nM
7 |  | 78 nM | 60 nM | 80 nM | 50 nM | 18 nM | 50 nM | 50 nM | 87 nM | 60 nM | 37 nM | 57 nM | 30 nM | 11 nM | 20 nM | 20 nM | 72 nM | 69 nM | 35 nM | 16 nM | C/C=C1\NC(=O)c2nc(ccc2SCC)CNC(=O)C[C@@H](/C=C/CCSC(=O)CCCCC)OC(=O)[C@H](C(C)C)NC1=O [Compound 253] | IC50 (μM) HDAC7 (HDAC7): no activity; GI50 ([18]; U937 cells): 30 nM
